Data as given in ChEMBL document CHEMBL4402560, “Sarco/Endoplasmic Reticulum Calcium ATPase Inhibitors: Beyond Anticancer Perspective” (J Med Chem, 2020).
Blank lines part the entries; values can stand above or below the compound they belong to.

How the values were obtained:
[1] = biological target: T1, Sarcoplasmic/endoplasmic reticulum calcium ATPase 1 (Oryctolagus cuniculus, UniProt P04191); test: Inhibition of rabbit skeletal muscle microsomes SERCA1a by enzyme-coupled method
[2] = biological target: Sarcoplasmic/endoplasmic reticulum calcium ATPase 2 (Rattus norvegicus, UniProt P11507); test: Inhibition of rat cerebellar microsomes SERCA2b by enzyme-coupled method; set-up: species or system Cerebellum
[3] = biological target: T1, Sarcoplasmic/endoplasmic reticulum calcium ATPase 1; test: Inhibition of rabbit microsomes SERCA1a by enzyme-coupled method
[4] = Inhibition of fish liver microsomes SERCA by enzyme-coupled method; set-up: species or system Squalius cephalus
[5] = biological target: T1, Sarcoplasmic/endoplasmic reticulum calcium ATPase 1; test: Inhibition of SERCA1 in rabbit skeletal muscle microsomes assessed as decrease in NADH absorbance by NADH-coupled enzyme assay; set-up: species or system Muscle tissue
[6] = biological target: T1, Sarcoplasmic/endoplasmic reticulum calcium ATPase 1; test: Inhibition of rabbit skeletal muscle microsomes SERCA1a by malachite green based colorimetric method
[7] = biological target: T1, Sarcoplasmic/endoplasmic reticulum calcium ATPase 1; test: Inhibition of rabbit skeletal muscle microsomes SERCA1a incubated for 10 mins by enzyme-coupled method
[8] = biological target: T1, Sarcoplasmic/endoplasmic reticulum calcium ATPase 1; test: Inhibition of rabbit SERCA1b expressed in COS7 cells microsomal membranes preincubated for 10 mins followed by addition of ATP and measured after 40 mins by ELISA method; type: cell-based
[9] = biological target: T2, Sarcoplasmic/endoplasmic reticulum calcium ATPase 2 (Homo sapiens, UniProt P16615); test: Inhibition of human SERCA2b expressed in COS7 cells microsomal membranes preincubated for 10 mins followed by addition of ATP and measured after 40 mins by ELISA method; type: cell-based
[10] = biological target: T3, Sarcoplasmic/endoplasmic reticulum calcium ATPase 3 (Homo sapiens, UniProt Q93084); test: Inhibition of human SERCA3a expressed in COS7 cells microsomal membranes preincubated for 10 mins followed by addition of ATP and measured after 40 mins by ELISA method; type: cell-based
[11] = Inhibition of porcine cerebellar microsomes SERCA2b by enzyme-coupled method; set-up: species or system Sus scrofa domesticus, Cerebellum
[12] = Inhibition of porcine cardiac microsomes SERCA2a by enzyme-coupled method; set-up: species or system Sus scrofa domesticus, Heart
[13] = biological target: T2, Sarcoplasmic/endoplasmic reticulum calcium ATPase 2; test: Inhibition of SERCA2b in human platelet microsomes by enzyme-coupled method
[14] = biological target: T3, Sarcoplasmic/endoplasmic reticulum calcium ATPase 3; test: Inhibition of SERCA3 in human platelet microsomes by enzyme-coupled method
[15] = biological target: T1, Sarcoplasmic/endoplasmic reticulum calcium ATPase 1; test: Inhibition of rabbit skeletal muscle microsomes SERCA1a
[16] = Inhibition of SERCA2a in porcine cardiac microsomes; set-up: species or system Sus scrofa domesticus, Heart
MIA PaCa-2 = test: Antiproliferative activity against human MIAPaCa2 cells; type: functional, cell-based
BJ = test: Antiproliferative activity against human BJ cells; type: functional, cell-based
MRC5 = test: Antiproliferative activity against human MRC5 cells; type: functional, cell-based
[17] = biological target: T1, Sarcoplasmic/endoplasmic reticulum calcium ATPase 1; test: Inhibition of rabbit skeletal muscle microsomes SERCA1a preincubated for 10 mins followed by addition of ATP and measured after 30 mins
[18] = biological target: T2, Sarcoplasmic/endoplasmic reticulum calcium ATPase 2; test: Inhibition of SERCA2a (unknown origin)

T3 sequence (Q93084 whole entry): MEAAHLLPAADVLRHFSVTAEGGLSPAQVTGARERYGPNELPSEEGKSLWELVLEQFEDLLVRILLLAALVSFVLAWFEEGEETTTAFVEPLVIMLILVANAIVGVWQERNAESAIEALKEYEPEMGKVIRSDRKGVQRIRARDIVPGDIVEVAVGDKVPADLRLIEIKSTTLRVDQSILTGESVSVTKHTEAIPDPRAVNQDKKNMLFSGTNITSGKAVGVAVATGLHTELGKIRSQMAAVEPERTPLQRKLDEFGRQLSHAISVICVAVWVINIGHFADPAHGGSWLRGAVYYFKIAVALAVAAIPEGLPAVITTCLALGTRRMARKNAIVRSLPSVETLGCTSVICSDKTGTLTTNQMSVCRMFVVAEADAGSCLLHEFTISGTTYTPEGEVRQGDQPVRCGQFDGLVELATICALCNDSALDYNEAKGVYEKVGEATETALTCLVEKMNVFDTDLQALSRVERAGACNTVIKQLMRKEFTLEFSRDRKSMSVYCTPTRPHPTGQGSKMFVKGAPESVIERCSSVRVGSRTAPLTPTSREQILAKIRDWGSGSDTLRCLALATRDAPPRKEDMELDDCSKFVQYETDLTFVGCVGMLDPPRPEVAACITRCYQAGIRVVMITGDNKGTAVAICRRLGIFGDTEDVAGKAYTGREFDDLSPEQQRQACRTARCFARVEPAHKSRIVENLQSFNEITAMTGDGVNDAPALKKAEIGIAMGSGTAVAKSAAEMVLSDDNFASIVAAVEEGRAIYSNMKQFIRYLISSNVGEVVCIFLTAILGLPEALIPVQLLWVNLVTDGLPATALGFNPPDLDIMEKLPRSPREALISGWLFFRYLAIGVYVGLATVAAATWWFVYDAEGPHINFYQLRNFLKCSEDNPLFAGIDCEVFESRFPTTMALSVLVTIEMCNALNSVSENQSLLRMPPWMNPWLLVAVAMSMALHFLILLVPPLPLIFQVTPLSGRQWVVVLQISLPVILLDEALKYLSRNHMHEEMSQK
T2 sequence (P16615 whole entry): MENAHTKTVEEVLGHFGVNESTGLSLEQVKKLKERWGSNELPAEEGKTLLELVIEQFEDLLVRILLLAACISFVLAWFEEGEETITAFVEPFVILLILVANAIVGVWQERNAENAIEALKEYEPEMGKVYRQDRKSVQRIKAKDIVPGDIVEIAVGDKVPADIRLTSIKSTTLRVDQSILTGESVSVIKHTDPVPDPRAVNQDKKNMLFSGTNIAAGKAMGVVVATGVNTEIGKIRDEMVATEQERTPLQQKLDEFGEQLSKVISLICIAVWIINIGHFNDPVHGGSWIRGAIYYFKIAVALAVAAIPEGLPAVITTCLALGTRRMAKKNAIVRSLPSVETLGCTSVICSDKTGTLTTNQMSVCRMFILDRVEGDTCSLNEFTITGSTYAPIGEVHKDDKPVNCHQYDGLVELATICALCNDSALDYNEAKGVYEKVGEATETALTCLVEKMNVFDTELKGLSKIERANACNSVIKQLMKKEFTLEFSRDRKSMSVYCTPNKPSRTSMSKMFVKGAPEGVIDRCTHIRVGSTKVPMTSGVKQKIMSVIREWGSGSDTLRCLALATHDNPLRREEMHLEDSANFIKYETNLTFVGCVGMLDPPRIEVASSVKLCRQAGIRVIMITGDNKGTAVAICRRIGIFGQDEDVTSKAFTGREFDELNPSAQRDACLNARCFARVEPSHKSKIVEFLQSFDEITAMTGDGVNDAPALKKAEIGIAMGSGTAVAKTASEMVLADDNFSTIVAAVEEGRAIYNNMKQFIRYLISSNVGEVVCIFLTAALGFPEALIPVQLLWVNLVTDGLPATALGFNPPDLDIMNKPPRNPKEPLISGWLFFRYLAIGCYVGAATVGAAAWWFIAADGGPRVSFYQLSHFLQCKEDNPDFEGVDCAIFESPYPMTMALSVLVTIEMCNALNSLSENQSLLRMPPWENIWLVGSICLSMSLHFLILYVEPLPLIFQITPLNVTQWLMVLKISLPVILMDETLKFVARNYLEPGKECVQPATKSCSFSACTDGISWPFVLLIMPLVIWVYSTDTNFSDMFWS
T1 sequence (P04191 whole entry): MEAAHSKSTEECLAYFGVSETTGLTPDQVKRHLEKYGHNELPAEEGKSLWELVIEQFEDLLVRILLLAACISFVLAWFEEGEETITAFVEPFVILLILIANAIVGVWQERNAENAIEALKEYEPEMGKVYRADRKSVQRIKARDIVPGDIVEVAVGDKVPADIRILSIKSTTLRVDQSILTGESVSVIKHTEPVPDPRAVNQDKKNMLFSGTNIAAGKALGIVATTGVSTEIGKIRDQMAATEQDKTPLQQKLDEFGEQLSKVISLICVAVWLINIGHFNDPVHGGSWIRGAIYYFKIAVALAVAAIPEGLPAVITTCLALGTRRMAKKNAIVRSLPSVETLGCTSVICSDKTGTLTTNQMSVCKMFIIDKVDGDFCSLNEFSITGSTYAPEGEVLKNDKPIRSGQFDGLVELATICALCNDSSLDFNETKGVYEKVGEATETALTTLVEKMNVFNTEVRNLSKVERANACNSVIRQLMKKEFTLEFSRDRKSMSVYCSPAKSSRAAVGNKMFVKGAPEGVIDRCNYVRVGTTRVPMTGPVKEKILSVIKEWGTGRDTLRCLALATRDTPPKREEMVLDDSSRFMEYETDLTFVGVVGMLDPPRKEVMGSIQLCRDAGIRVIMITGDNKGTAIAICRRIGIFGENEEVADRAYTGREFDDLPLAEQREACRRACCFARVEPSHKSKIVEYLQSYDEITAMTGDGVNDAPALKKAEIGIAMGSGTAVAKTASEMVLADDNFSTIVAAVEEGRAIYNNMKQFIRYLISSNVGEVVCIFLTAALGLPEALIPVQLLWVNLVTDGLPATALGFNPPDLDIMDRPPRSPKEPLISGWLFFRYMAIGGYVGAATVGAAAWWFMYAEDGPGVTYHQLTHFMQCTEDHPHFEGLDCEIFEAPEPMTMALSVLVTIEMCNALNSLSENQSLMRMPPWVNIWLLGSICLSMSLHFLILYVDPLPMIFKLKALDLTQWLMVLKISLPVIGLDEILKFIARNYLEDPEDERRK
Chain of Sarcoplasmic/endoplasmic reticulum calcium ATPase 2 (Rattus norvegicus, UniProt P11507) (P11507 whole entry): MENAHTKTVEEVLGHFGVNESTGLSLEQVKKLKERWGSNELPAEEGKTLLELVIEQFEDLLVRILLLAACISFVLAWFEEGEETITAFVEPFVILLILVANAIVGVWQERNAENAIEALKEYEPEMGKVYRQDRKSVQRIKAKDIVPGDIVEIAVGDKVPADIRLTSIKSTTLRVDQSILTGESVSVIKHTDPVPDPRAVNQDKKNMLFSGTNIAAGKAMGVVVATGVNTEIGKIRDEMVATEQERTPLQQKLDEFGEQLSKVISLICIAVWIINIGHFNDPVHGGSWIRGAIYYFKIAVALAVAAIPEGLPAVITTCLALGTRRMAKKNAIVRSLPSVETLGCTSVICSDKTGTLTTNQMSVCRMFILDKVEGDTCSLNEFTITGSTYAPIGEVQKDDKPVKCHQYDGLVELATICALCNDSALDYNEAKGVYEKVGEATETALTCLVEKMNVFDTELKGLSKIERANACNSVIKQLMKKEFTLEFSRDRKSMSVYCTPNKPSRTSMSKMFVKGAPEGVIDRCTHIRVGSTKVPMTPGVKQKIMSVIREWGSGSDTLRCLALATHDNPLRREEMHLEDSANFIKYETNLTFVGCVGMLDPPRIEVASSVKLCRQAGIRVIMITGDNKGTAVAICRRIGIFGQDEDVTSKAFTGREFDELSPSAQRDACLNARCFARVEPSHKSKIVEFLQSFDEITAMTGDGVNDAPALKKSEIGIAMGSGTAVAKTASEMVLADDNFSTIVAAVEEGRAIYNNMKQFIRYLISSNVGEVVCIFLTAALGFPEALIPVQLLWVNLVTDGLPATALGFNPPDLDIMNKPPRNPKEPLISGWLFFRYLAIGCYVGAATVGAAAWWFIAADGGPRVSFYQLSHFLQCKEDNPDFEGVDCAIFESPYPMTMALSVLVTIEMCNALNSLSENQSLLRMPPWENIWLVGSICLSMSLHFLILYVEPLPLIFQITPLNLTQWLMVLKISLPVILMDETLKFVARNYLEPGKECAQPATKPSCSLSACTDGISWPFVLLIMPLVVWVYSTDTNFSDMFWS

- IC50 [5]: 35 µM
SMILES: CCCCCCCCCCCCCCCCCC(=O)O[C@@H]1[C@@H](O)[C@@H](O)[C@H](OC[C@H]2O[C@@H](Oc3c(-c4ccc(O)c(O)c4)oc4cc(O)cc(O)c4c3=O)[C@H](O)[C@@H](O)[C@@H]2O)O[C@H]1C

- IC50 [6]: 1.3 µM
SMILES: Clc1cccc(C(Nc2ccnc3cc(Cl)ccc23)c2ccc(CN3CCN(c4ccnc5cc(Cl)ccc45)CC3)cc2)c1 (stereo not given)

- IC50 [5]: 28 µM
SMILES: CCCCC/C=C\C/C=C\CCCCCCCC(=O)O[C@@H]1[C@@H](O)[C@@H](O)[C@H](OC[C@H]2O[C@@H](Oc3c(-c4ccc(O)c(O)c4)oc4cc(O)cc(O)c4c3=O)[C@H](O)[C@@H](O)[C@@H]2O)O[C@H]1C

- IC50 [7]: 45 µM
SMILES: CN1CCN(CCCN2c3ccccc3Sc3ccc(C(F)(F)F)cc32)CC1 [TRIFLUOPERAZINE]

- Ki [8]: 5.8 µM
- Ki [9]: 53 µM
- Ki [10]: 8.6 µM
- IC50 [1]: 3 to 15 µM
- IC50 [11]: 7 to 15 µM
- IC50 [12]: 7 to 15 µM
- IC50 [13]: 7 to 15 µM
- IC50 [14]: 7 to 15 µM
SMILES: COc1cc(/C=C/C(=O)CC(=O)/C=C/c2ccc(O)c(OC)c2)ccc1O [CURCUMIN]

- IC50 [15]: 0.27 to 0.3 µM
SMILES: CC[C@H](C)[C@H](NC(=O)CCCCCNC(=O)[C@H](Cc1ccc(O)cc1)NC(=O)[C@H](CCCNC(=N)N)NC(=O)[C@@H]1CCCN1C(=O)[C@H](CCCNC(=N)N)NC(=O)[C@H](CC(N)=O)NC(=O)[C@H](CCC(N)=O)NC(=O)[C@@H](Cc1ccc(O)cc1)N(C)C(=O)Cc1ccccc1)C(=O)N[C@@H](CC(N)=O)C(=O)N[C@@H](CC(C)C)C(=O)N[C@@H](CCCCN)C(=O)N[C@@H](C)C(=O)N[C@@H](CC(C)C)C(=O)N[C@@H](C)C(=O)N[C@@H](C)C(=O)N[C@@H](CC(C)C)C(=O)N[C@@H](C)C(=O)N[C@@H](CCCCN)C(=O)N[C@@H](CCCCN)C(=O)N[C@H](C(=O)N[C@@H](CC(C)C)C(N)=O)[C@@H](C)CC

- IC50 [5]: 23 µM
SMILES: CCCCC/C=C\C/C=C\C/C=C\C/C=C\CCCC(=O)O[C@@H]1[C@@H](O)[C@@H](O)[C@H](OC[C@H]2O[C@@H](Oc3c(-c4ccc(O)c(O)c4)oc4cc(O)cc(O)c4c3=O)[C@H](O)[C@@H](O)[C@@H]2O)O[C@H]1C

- IC50 [1]: 23 µM
- IC50 [11]: 23 µM
SMILES: CCOC(=O)CC1C(C(=O)OCC)=C(N)Oc2ccc(-c3ccccc3)cc21 (stereo not given)

- IC50 [6]: 8 µM
SMILES: Clc1cccc(C(Nc2ccnc3cc(Cl)ccc23)c2ccc(CN3CCCC3)cc2)c1 (stereo not given)

- IC50 (MIA PaCa-2): 13.7 to 50 µM
SMILES: C/C=C(/C)C(=O)O[C@@H]1C[C@H]2C(=C1C)[C@@H]1OC(=O)[C@@](C)(O)[C@@]1(O)[C@@H](OC(=O)CCCCn1cc([C@]3(O)CC[C@H]4[C@@H]5CCC6=CC(O)CC[C@]6(C)[C@H]5CC[C@@]43C)nn1)C[C@]2(C)OC(C)=O (stereo not given in full)
- IC50 (BJ): 13.7 to 50 µM
- IC50 (MRC5): > 50 µM

Further lines, the compound ahead of its results:

SMILES: CC(C)(c1ccc(O)cc1)c1ccc(O)cc1 [BISPHENOL A]
- IC50 [1]: 2 µM
- IC50 [2]: 2 µM
- IC50 [3]: 233 µM
- IC50 [4]: 233 µM

SMILES: CC[C@H](C)[C@H](N)C(=O)N[C@@H](CC(N)=O)C(=O)N[C@@H](CC(C)C)C(=O)N[C@@H](CCCCN)C(=O)N[C@@H](C)C(=O)N[C@@H](CC(C)C)C(=O)N[C@@H](C)C(=O)N[C@@H](C)C(=O)N[C@@H](CC(C)C)C(=O)N[C@@H](C)C(=O)N[C@@H](CCCCN)C(=O)N[C@@H](CCCCN)C(=O)N[C@H](C(=O)N[C@@H](CC(C)C)C(=O)O)[C@@H](C)CC
- Ki [1]: 1 µM

SMILES: O=C1CSC(c2ccccc2Cl)c2cc(Cl)ccc2N1 (stereo not given)
- IC50 [15]: 6.6 µM
- IC50 [16]: 9.9 µM

SMILES: CC(C)(O)[C@H]1O[C@H]2CC[C@@]3(C)[C@@](O)(CC[C@H]4Cc5c([nH]c6ccccc56)[C@@]43C)C2=CC1=O [PAXILLINE]
- IC50 [1]: 5 µM
- IC50 [11]: 5 µM
- IC50 [12]: 5 µM
- IC50 [13]: 5 µM
- IC50 [14]: 5 µM

SMILES: C/C=C(/C)C(=O)O[C@@H]1C[C@H]2C(=C1C)[C@@H]1OC(=O)[C@@](C)(O)[C@@]1(O)[C@@H](OC(=O)CCCCn1cc([C@]3(O)CC[C@H]4[C@@H]5CCc6cc(OC)ccc6[C@H]5CC[C@@]43C)nn1)C[C@]2(C)OC(C)=O
- IC50 (MIA PaCa-2): > 50 µM
- IC50 (BJ): 17 µM
- IC50 (MRC5): 10.1 µM

SMILES: C/C=C(/C)C(=O)O[C@H]1C(C)=C2[C@H]([C@@H]1OC(=O)CCCCCCC)[C@](C)(OC(C)=O)C[C@H](OC(=O)CCC)[C@@]1(O)[C@H]2OC(=O)[C@@]1(C)O
- Ki [15]: 0.011 µM
- IC50 [8]: 0.21 to 12 µM
- IC50 [9]: 0.21 to 12 µM
- IC50 [10]: 0.21 to 12 µM

SMILES: C[C@H](C[C@H](O)[C@H]1OC1(C)C)C1=C2C[C@H](O)[C@H]3[C@@]4(C)CCC(=O)C(C)(C)[C@@H]4CC[C@]3(C)[C@@]2(C)CC1 [ALISOL B]
- IC50 [1]: 27 to 53 µM
- IC50 [11]: 27 µM

SMILES: Cc1cc(O)ccc1Cl [CHLOROCRESOL]
- IC50 [17]: 2800 µM

SMILES: C/C=C/C/C(C)=C\[C@H]1C/C=C/C=C/C[C@H](C)/C=C(\C)[C@@H](OC)C/C=C/[C@@H](O[C@@H]2O[C@H](CO)[C@@H](O)[C@H](OC)[C@H]2O)CC(=O)O1
- Ki [18]: 0.011 µM

SMILES: C/C=C/C/C(C)=C\[C@@H]1OC(=O)C[C@H](O[C@@H]2O[C@H](CO)[C@@H](O)[C@H](OC)[C@H]2O)/C=C/C[C@H](OC)/C(C)=C/[C@@H](C)C[C@H]2C=C[C@H]1OO2
- Ki [15]: 0.018 µM
- Ki [18]: 0.0013 µM
